Measurements reported in PubChem BioAssay (NCI).
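Step 1: Grow cells in 96-well plates. Step 2: Expose to compound for 48 hours at 5 concentrations. Step 3: Interpolate endpoints linearly; if unreached, use highest concentration. Here, GI50 denotes the concentration required for 50% inhibition of growth. TGI marks complete inhibition of growth.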

These molecules were tested on MDA-MB-468 breast (assay: DTP human tumour cell line panel, 48 h).
For `O=C(Nc1ccc2c(c1)OCO2)C(=O)c1c[nH]c2cc(F)ccc12`, the GI50 was 5700 nM and the TGI was 67900 nM. `CC[C@@H](C)Nc1cc(C(=O)NC2CC3CCC(C2)N3c2ccc(C(=O)C3CC3)cn2)c(C)cc1C(N)=O` (stereo partly specified) gave a GI50 of 18.9 nM and a TGI of 83.8 nM. `O=C(NNC(=S)Nc1ccccc1)c1ccccn1` was tested, and the GI50 was 2840 nM and the TGI was 90900 nM. `C=C1CCC2C3(C)COC(c4ccc(Cl)cc4)OC3CCC2(C)C1/C=C/C1=CCOC1=O` (stereo unspecified) showed a GI50 of 502 nM and a TGI of 6250 nM. `COc1cc(/C=C\c2cc(/C=C\c3ccc(O)c(OC)c3)n(C(=O)CNc3ccc(Cl)cc3)n2)ccc1O` was tested, and the GI50 was 3170 nM and the TGI was 9690 nM. In the case of `COc1cc2ncn(-c3cc(OCc4ccccc4C(F)(F)F)c(C(C)=O)s3)c2cc1OC`, the GI50 is reported as over 23300 nM and the TGI is reported as over 25000 nM. `CCOc1c(C#N)c2c(N)ncnc2n1C1OC(CO)C(O)C1O` (stereo unspecified) was tested, and the GI50 was 1750 nM and the TGI was 5980 nM. Molecule `O=C(Nc1nc(-c2ccc(Cl)cc2)nc2c1sc(=S)n2-c1ccccc1)C(F)(F)F` has a GI50 of 3790 nM and a TGI of 20500 nM. `Oc1ccc(CSc2nnc(-c3ccc(Cl)cc3)o2)c2cccnc12` showed a GI50 of 2470 nM and a TGI of over 100000 nM. For `O=C(Nc1cccnc1)c1ccc2ccc3ccc(C(=O)Nc4cccnc4)nc3c2n1`, the GI50 was 69.7 nM and the TGI was 442 nM. In the case of `O=S(=O)(Nc1ccc2ccccc2c1)c1ccc(-c2cnc(C3CC3)o2)cc1`, the GI50 is reported as 327 nM and the TGI is reported as 12000 nM. With `C/C=C(/C)C(=O)OC1C=C(CO)C(=O)C(OC(=O)C(C)(O)C(C)Cl)C1C(C)C` (stereo unspecified) the GI50 was 1050 nM and the TGI was 2800 nM. `O=C(Nc1cccc(Cl)c1)c1cc(N=Nc2ccc([N+](=O)[O-])cc2Cl)ccc1O` gave a GI50 of 2910 nM and a TGI of over 100000 nM. `CC(C)(C)c1ccc(O)c(CN(Cc2cc(C(C)(C)C)ccc2O)C2CCCCC2)c1` was tested, and the GI50 was 4400 nM and the TGI was 19200 nM. For `CC(=O)C1CCC2C3CC=C4CC(SC(=N)N)CCC4(C)C3CCC12C` (stereo unspecified), the GI50 was 1540 nM and the TGI was 2900 nM. With `CCOC(=O)c1csc(NC(=O)COc2cccc(/C=C3\CSc4ccccc4C3=O)c2)n1` the GI50 was 66.1 nM and the TGI was 185 nM. In the case of `COc1cc(-c2ccc(NC(=O)NC3CC3)c(OC)c2)ccc1NC(=O)NC1CC1`, the GI50 is reported as over 100000 nM and the TGI is reported as over 100000 nM. For `COC(=O)c1ccc2c(c1)c1c(C)c3ccncc3c(C)c1n2C`, the GI50 was 767 nM and the TGI was 15200 nM. With `CC1(O)Cc2c(O)c3c(c(O)c2CC1O)C(=O)C=CC3=O` (stereo unspecified) the GI50 was 553 nM and the TGI was 1930 nM. Molecule `CC(C)CCC(=O)[C@@H](C)[C@H]1[C@@H](OC2OCC(O)C(O)C2NS(C)(=O)=O)C[C@H]2[C@@H]3CC=C4C[C@@H](O)CC[C@]4(C)[C@H]3CC[C@]12C` (stereo partly specified) has a GI50 of 3380 nM and a TGI of 11200 nM. `CC[C@]12C=CCN3CC[C@@]4(c5ccc(OC)cc5N(C)[C@H]4[C@@](O)(C(=O)OC)[C@@H]1OC(=O)CCC(=O)N[C@H](Cc1c[nH]c4ccccc14)C(=O)OC)[C@@H]32` was tested, and the GI50 was 1640 nM and the TGI was 3140 nM. With `CN1CCN(Cc2ccc(NC(=O)c3cncc(C#Cc4cnn5ccccc45)c3)cc2C(F)(F)F)CC1` the GI50 was 965 nM and the TGI was 2080 nM. `O=C(Cn1c(C(=O)c2ccccc2)nc2ccccc21)c1ccc(F)cc1` gave a GI50 of 2020 nM and a TGI of 16600 nM. `Cc1nnc(-c2ccc(C)c(-c3ccc(C(=O)NCc4ccc(Cl)cc4)cc3)c2)o1` showed a GI50 of 2910 nM and a TGI of 15100 nM. With `Nc1nc(N)c2c(n1)NC(c1ccc(Cl)cc1)CC(c1ccc(Nc3nc(NCCO)nc(Nc4ccc(Cl)cc4)n3)cc1)=N2` (stereo unspecified) the GI50 was 1390 nM and the TGI was 2790 nM. For `COc1ccc(/C=C\c2cc(OC)c(OC)c(OC)c2)c(O)c1O`, the GI50 was 74.1 nM and the TGI was 21400 nM. Molecule `CCCCCCN(C)Cc1ccc(OCCOc2ccc(CN(C)CCCCCC)cc2)cc1` has a GI50 of 1160 nM and a TGI of 2480 nM. For `CC(C)(C)NC/C(=C\c1ccccc1)C(=O)c1ccccc1`, the GI50 was 713 nM and the TGI was 2180 nM.
